Two compounds from patent publication US6887705B1, “Tyrosine phosphorylated cleavage furrow-associated proteins (PSTPIPs)” (Genentech, Inc., priority 1997, dated 2005) can be followed below.

For assay [1], the system named is PSTPIP tyrosine phosphorylation. Briefly: Tyrosine phosphorylation of endogenous PSTPIP in Baf3 cells. The class given is cell-based, murine. On the procedure: Baf3 cells were lysed in 1% Triton, 50 mM HEPES. 10% glycerol and 5 mM EDTA containing 1 μg/ml aprotinin, PMSF, leupeptin and pepstatin were 1 mM Sodium Vanadate and 10 mM Iodoacetic acid. Cells were treated with 0.1 mM Pervanadate for 4 hours before lysis. Immunoprecipitations were performed in the vanadate-containing lysis buffer using 1 μg/ml anti-PSTPIP polyclonal antibody and 400 μg of lysate protein at 4° C. overnight. Western blots were performed using 1 μg/ml affinity purified anti-PSTPIP or 1:5000 dilution of commercial 4G10 anti-phosphotyrosine monoclonal (Upstate Biotech). Signal was detected by HRPO-ECL reagents (Pierce). The C221-S mutant was as previously described (Cheng et al., (1996) supra). The PTP HSCF D197-A mutant was generated using PCR. Mutagenesis primer D197A.F ([…]) (SEQ ID NO:24), corresponding to nucleotide 591, and primer D197A.R ([…]) (SEQ ID NO:25) which corresponds to the stop codon, were used in PCR to generate a fragment that could be cut with Mscl and XbaI. pRK.HA.38 WT, a plasmid which encoded the wild type enzyme under the control of the cytomegalovirus promoter (Cheng et al., (1996) supra), was digested with Clal and Mscl and the resulting 600 bp fragment was ligated with the Mscl-Xbal PCR fragment into the Clal and Xbal sites of the pRK.tkneo. […]

For assay [2], the target named is T1, interaction between PTP HSCF and PSTPIP (Mus musculus, UniProt P97814).
T1 construct: made in house; host or cells: GST fusion: E. coli DH5-alpha; PSTPIP: in vitro transcription/translation in rabbit reticulocyte lysate (Promega TnT)
T1 sequence (P97814 1-415): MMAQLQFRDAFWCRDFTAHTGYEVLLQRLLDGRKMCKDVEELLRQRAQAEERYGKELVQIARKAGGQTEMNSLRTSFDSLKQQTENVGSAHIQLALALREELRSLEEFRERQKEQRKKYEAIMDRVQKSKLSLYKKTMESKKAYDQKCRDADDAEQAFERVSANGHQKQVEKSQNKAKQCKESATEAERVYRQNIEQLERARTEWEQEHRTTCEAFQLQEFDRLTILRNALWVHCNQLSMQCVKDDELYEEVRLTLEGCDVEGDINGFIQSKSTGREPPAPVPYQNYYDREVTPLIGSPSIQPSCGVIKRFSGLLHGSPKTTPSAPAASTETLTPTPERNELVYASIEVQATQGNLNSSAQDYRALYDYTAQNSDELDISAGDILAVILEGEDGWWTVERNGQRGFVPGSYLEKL
Briefly: Peptide inhibition of in vitro binding of PSTPIP to GST-PTP HSCF fusion. Further details: species or system murine. As to conditions: GST-PST-rich+CTH PTP HSCF precipitating in vitro translated PSTPIP, varying amounts of peptide. The procedure: The binding was carried out according to the method of Wong and Johnson (Wong et al., J. Biol. Chem. 271(35):20981-20984 (1996)). Briefly, 1 μg of plasmid with either the PSTPIP protein or PTP HSCF under the control of the Sp6 promoter was in vitro transcribed/translated using the Promega™ TnT Rabbit Reticulocyte™ system. Samples were diluted in 50 mM HEPES, pH 7.2, 1% triton X 100, 10% glycerol, 100 mM NaCl, 5 mM EDTA and 2 μg/ml each of leupeptin, pepstatin, aprotinin, and PMSF. […] This was reacted for 1 hour at 4° C. and then the resin washed 6 times in HEPES/Triton binding buffer before SDS gel electrophoresis. The peptides were synthesized on an automated Milligen 9050 Peptide Synthesizer using standard solid phase chemistry with FMOC protected amino acids on a p-alkoxybenzyl alcohol resin. Dried peptides were re-suspended in the HEPES/Triton Binding buffer at a concentration of 10 mg/ml. Peptide inhibition was performed by adding the peptide first to the in vitro translation product and then the GST-fusion followed by the GSH-Sepharose. […]
In vitro binding analyses between various PTP HSCF and PST PIP constructs were performed as previously described (Spencer et al, (1997), supra). […] Samples were than reacted with GST fusion proteins at various concentrations, and the bound proteins were centrifuged using glutathione-sepharose beads and analyzed on SDS polyacrylamide gels. […]

Take `[O]=[V]([O-])([O-])[O-]` [vanadate]: in assay [1], the “tyrosine phosphorylation of endogenous PSTPIP” value is “significantly enhanced”.
For the compound GGVLRSISVPAPPTLPMADT [PXXP-CONTROL], in assay [2], the “blocking of the PTP HSCF-PSTPIP interaction by peptide” value was “completely unable to block the interaction”.
